Reference: patent publication US10350311B2, “Iohexol powder and method of using the same” (Otsuka Pharmaceutical Co., Ltd., priority 2014, dated 2019)

How the values were obtained:
Assay type in all cases: physicochemical
[1] = Dissolution time in water by Modified United States Pharmacopeia Method 641; conditions: Example 2
Protocol: As used herein, the term “Modified United States Pharmacopeia Method 641” denotes a modified form of the Standard United States Pharmacopeia Method 641, where the Modified United States Pharmacopeia Method 641 is carried out as follows: • Place 1.8 g of the particulate iohexol in a meticulously clean, glass-stoppered, 50 mL glass cylinder approximately 1:10 diameter to height in size. • Fill 40 mL of tap water adjusted to 10° C. (±2° C.) into the glass cylinder. • Immediately start shaking the glass cylinder and start recording total time. • Shake the glass cylinder with an up and down movement, keeping the frequency at 12-13 movements per 5 seconds. • After 20 seconds observe for 3 seconds for completeness of dissolution. • Evaluate after 3 seconds, when the bubbles disappear, comparing with pure solvent. • If dissolved completely, record “dissolved in 20 seconds”. • If not dissolved completely, continue shaking for a total time 30 sec • Repeat the dissolution evaluation at 30 seconds, 40 seconds, 1 min., and 1 min. 30 seconds. • Always repeat the dissolution evaluation using the same procedure. • If dissolved completely at time point 1 min 30 sec, record “dissolved in NMT 1 min 30 sec”. • If not dissolved, record “not dissolved in 1 min 30 sec”. 20 oz (600 ml) modified beverage PET bottle for Iohexol Powder for Oral Solution product; 50 ml testing glass cylinder; Tap water. Samples were tested using the Modified USP Method <641> as described herein.

[2] = Particle size distribution (D10, D50, D90); conditions: Table 6, Example 5; listed as crystallized iohexol
Source text: As used herein, the “D90” of a particulate material denotes a diameter value for the particles in the material at which about 90% of the particles have a diameter below the diameter value. For example, in a sample with a D90 of 20 μm, 90% of the particles in the sample have a diameter of 20 μm or less. As used herein, the “D50” of a material denotes a diameter value for the particles in the material at which about 50% of the particles have a diameter below the diameter value. For example, in a sample with a D50 of 10 μm, 50% of the particles in the sample have a diameter of 10 μm or less. As used herein, the “D10” of a material denotes a diameter value for the particles in the material at which about 10% of the particles have a diameter below the diameter value. For example, in a sample with a D10 of 5 μm, 10% of the particles in the sample have a diameter of 5 μm or less.

[3] = Specific surface area by low-temperature nitrogen adsorption (BET); conditions: for Specific Area measured [m^2/g]: BET isotherm, nitrogen adsorption; for Specific Area estimated [m^2/g]: calculated from SEM geometry assuming non-porous spheres
Protocol: Specific surface area was measured using a low-temperature nitrogen adsorption apparatus, a Pulse Chemisorb 2700.
The specific surface area data, which were evaluated using a BET isotherm, support the nonporous nature/character of the particles. The measured value of the specific surface area was about 2.8 m^2/g, which is consistent with the calculation of the specific surface area of hypothetical material which consists of non-porous spheres with a radius of 3 μm. Considering the skeletal density of crystallized iohexol (2.097 g/cm3), the calculated specific surface area of this hypothetical material is about 4 m^2/g. All data provided by analyses appear to support the conclusion that the crystallized iohexol solid material contains agglomerates consisting of small nonporous particles and that the total specific area is the sum of the outer surface areas of these particles.
Experimentally obtained values of the specific surface area are very low, which is typical of macroporous to non-porous materials. Experimental specific surface area values for all samples are in good agreement with the estimated values based on SEM image analysis, (calculating the particle surface area based on the geometrical shape of particles, i.e., and assuming that the particles are not porous (confirmed by mercury porosimetry as discussed above). Individual values and comparisons of the amount of nitrogen desorption for each sample are summarized in Table 5.

[4] = Skeletal density by helium pycnometer; conditions: Table 5, Example 3
Protocol: As used herein, the term “interparticle spacing” denotes the percentage of the “bulk” particle volume which is free space. The interparticle spacing can be calculated from the bulk density and skeletal density. As discussed above, bulk density refers to the density determined by dividing the weight of the sample by its measured volume, for example using the USP <616> method. The skeletal density, sometimes referred to as the “true density,” is determined by dividing the weight of a sample by its “true” volume—i.e., the volume excluding interstitial voids and any open porosity in the sample (e.g., determined by gas displacement techniques). […] The porosity of the iohexol particles was also investigated using mercury intrusion, and the skeletal density was determined by helium pycnometer and physical adsorption of nitrogen.

[5] = Exposure to air humidity / moisture uptake; conditions: exposed to ambient air humidity for 120 hours, SEM
Protocol: Crystallized iohexol samples were also examined by SME analysis for the influence of air humidity (i.e., humidity of ambient/room air). Crystallized iohexol samples were exposed to air humidity for 120 hours.

[6] = Table 5, listed as crystallized iohexol

Compound: CC(=O)N(CC(O)CO)c1c(I)c(C(=O)NCC(O)CO)c(I)c(C(=O)NCC(O)CO)c1I (centres unmarked) [CRI, iohexol]
- Dissolution, in words [1]: dissolved rapidly
- Particle Size distribution (μm) D50 [2]: 10 μm
- Specific Area measured [m^2/g] ([3]; Table 5): 2.8 m^2/g
- Specific Area measured [m^2/g] [3, 6]: about 2.8 m^2/g
- Specific Area estimated [m^2/g] ([3]; Table 5): 4.0^a m^2/g
- Specific Area estimated [m^2/g] [3, 6]: about 4 m^2/g
- Relative desorbed amount Ad/Ad(crystallized) ([3]; Table 5, nitrogen desorbed relative to crystallized iohexol): 1
- Specific surface area m^2/g ([3]; Table 6, Example 5, listed as crystallized iohexol): about 4 m^2/g
- Skeletal density [4]: 2.097 g/mL
- Skeletal density ([4]; listed as crystallized iohexol): 2.097 g/mL
- Influence of air humidity on the particles [5]: sintering of originally separated particles was observed
